Experiment [1] addresses T1, T315I Abl kinase (SEQ ID NO:2) (Homo sapiens, UniProt P00519, T315I).
T1 construct: purchased deCode Genetics
T1 sequence (P00519 with tags, fused parts or gaps T315I): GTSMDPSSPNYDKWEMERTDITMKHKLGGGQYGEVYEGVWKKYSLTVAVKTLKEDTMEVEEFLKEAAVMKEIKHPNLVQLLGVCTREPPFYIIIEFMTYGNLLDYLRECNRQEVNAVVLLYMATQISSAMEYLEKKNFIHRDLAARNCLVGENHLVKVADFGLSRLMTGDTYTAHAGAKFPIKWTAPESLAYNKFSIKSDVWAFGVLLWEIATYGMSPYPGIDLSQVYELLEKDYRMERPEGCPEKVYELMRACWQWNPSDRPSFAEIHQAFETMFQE
Nature of the experiment: T315I Abl kinase assay (pyruvate kinase/lactate dehydrogenase coupled). To be noted: 1 h preincubation at 30° C., ATP 500 μM; read-out: Abl T315l Enzyme Assay, biochemical IC50. The method, then: Abl Kinase (SEQ ID NO:2) Assay
Activity of T315I Abl kinase (SEQ ID NO:2) was determined by following the production of ADP from the kinase reaction through coupling with the pyruvate kinase/lactate dehydrogenase system (e.g., Schindler, et al. Science (2000) 289, 1938-1942). In this assay, the oxidation of NADH (thus the decrease at A340nm) was continuously monitored spectrophometrically. The reaction mixture (100 μl) contained Abl kinase (4.4 nM. […] Abl from deCode Genetics), peptide substrate (EAIYAAPFAKKK, 0.2 mM), MgCl2 (10 mM), pyruvate kinase (4 units), lactate dehydrogenase (0.7 units), phosphoenol pyruvate (1 mM), and NADH (0.28 mM) in 90 mM Tris buffer containing 0.2% octyl-glucoside and 1% DMSO, pH 7.5. Test compounds were incubated with T315I Abl (SEQ ID NO:2) and other reaction reagents at 30° C. for 1 h before ATP (500 μM) was added to start the reaction. The absorption at 340 nm was monitored continuously for 2 hours at 30° C. on Polarstar Optima plate reader (BMG). The reaction rate was calculated using the 1.0 to 2.0 h time frame. Percent inhibition was obtained by comparison of reaction rate with that of a control (i.e. with no test compound). IC50 values were calculated from a series of percent inhibition values determined at a range of inhibitor concentrations using software routines as implemented in the GraphPad Prism software package.

The target in experiment [2] is T2, BaF3 cells transfected with T315I p210 BCR-Abl (Homo sapiens, UniProt P00519, T315I, cells depend on it).
T2 construct: fused on or other part: P11274 (Breakpoint cluster region protein)
Nature of the experiment: Ba/F3 p210 T315I whole cell proliferation assay (Cell Titer Blue, 72 hours). To be noted: 72 hours incubation; read-out: Ba/F3 p210 T315I whole cell proliferation assay, antiproliferation IC50. The experiment is classed as cell-based. How it is done:
BaF3 cells (parental or transfected with the following: wild type p210 BCR-Abl and T315I p210 BCR-Abl was obtained from Professor Richard Van Etten (New England Medical Center, Boston, Mass.). Briefly, cells were grown in RPMI 1640 supplemented with 10% characterized fetal bovine serum (HyClone, Logan, Utah) at 37 degrees Celsius, 5% CO2, 95% humidity. Cells were allowed to expand until reaching 80% saturation at which point they were subcultured or harvested for assay use.
A serial dilution of test compound was dispensed into a 96 well black clear bottom plate (Corning, Corning, N.Y.). For each cell line, three thousand cells were added per well in complete growth medium. Plates were incubated for 72 hours at 37 degrees Celsius, 5% CO2, 95% humidity. At the end of the incubation period Cell Titer Blue (Promega, Madison, Wis.) was added to each well and an additional 4.5 hour incubation at 37 degrees Celsius, 5% CO2, 95% humidity was performed. Plates were then read on a BMG Fluostar Optima (BMG, Durham, N.C.) using an excitation of 544 nm and an emission of 612 nm. Data was analyzed using Prism software (Graphpad, San Diego, Calif.) to calculate IC50's.
On the technique in general: The colour change of resazurin is a common sign of viable cells or microbes.

For experiment [3], the target named is T3, Abl kinase (SEQ ID NO:1) (Homo sapiens, UniProt P00519).
T3 construct: purchased deCode Genetics
T3 sequence (P00519 with tags, fused parts or gaps): T1 sequence (P00519 with tags, fused parts or gaps T315I) with I94T
Nature of the experiment: Abl kinase assay (pyruvate kinase/lactate dehydrogenase coupled, ADP production). To be noted: 2 h preincubation at 30° C., ATP 500 μM; read-out: Abl Enzyme Assay, biochemical IC50. How it is done: Abl Kinase (SEQ ID NO:1) Assay
Activity of Abl kinase (SEQ ID NO:1) was determined by following the production of ADP from the kinase reaction through coupling with the pyruvate kinase/lactate dehydrogenase system (e.g., Schindler, et al. Science (2000) 289, 1938-1942). In this assay, the oxidation of NADH (thus the decrease at A340nm) was continuously monitored spectrophometrically. The reaction mixture (100 μl) contained Abl kinase (1 nM. Abl from deCode Genetics), peptide substrate (EAIYAAPFAKKK. 0.2 mM), MgCl2 (10 mM), pyruvate kinase (4 units), lactate dehydrogenase (0.7 units), phosphoenol pyruvate (1 mM), and NADH (0.28 mM) in 90 mM Tris buffer containing 0.2% octyl-glucoside and 3.5% DMSO, pH 7.5. Test compounds were incubated with Abl (SEQ ID NO:1) and other reaction reagents at 30° C. for 2 h before ATP (500 μM) was added to start the reaction. The absorption at 340 nm was monitored continuously for 2 hours at 30° C. on Polarstar Optima plate reader (BMG). The reaction rate was calculated using the 1.0 to 2.0 h time frame. Percent inhibition was obtained by comparison of reaction rate with that of a control (i.e. with no test compound). IC50 values were calculated from a series of percent inhibition values determined at a range of inhibitor concentrations using software routines as implemented in the GraphPad Prism software package.

Changes are numbered by the printed parent chain.

For `CCc1cc(NC(=O)Nc2ccc(Oc3ccnc(-c4cnn(C(C)C)c4)c3)cc2F)n(-c2cccc(C#N)c2)n1` [Example 17, 1-(1-(3-cyanophenyl)-3-ethyl-1H-pyrazol-5-yl)-3-(2-fluoro-4-(2-(1-isopropyl-1H-pyrazol-4-yl)pyridin-4-yloxy)phenyl)urea], the half-maximal inhibitory concentration (IC50) in experiment [1] and in experiment [3] was less than 0.1 µM each time. In experiment [2], the GI50 was less than 0.1 µM.
Take `CCc1cc(NC(=O)Nc2ccc(Oc3ccnc(-c4cnn(C)c4)c3)cc2F)n(-c2ccc(CO)cc2)n1` [Example 19, 1-(3-ethyl-1-(4-(hydroxymethyl)phenyl)-1H-pyrazol-5-yl)-3-(2-fluoro-4-(2-(1-methyl-1H-pyrazol-4-yl)pyridin-4-yloxy)phenyl)urea]: the IC50 in experiment [1] and in experiment [3] was less than 0.1 µM in each case. Moreover, the GI50 in experiment [2] was less than 0.1 µM.
For the compound `CC(C)n1cc(NC(=O)Nc2ccc(Oc3ccnc(-c4cnn(C)c4)c3)cc2F)c(-c2ccccc2)n1` [Example 21, 1-(2-fluoro-4-(2-(1-methyl-1H-pyrazol-4-yl)pyridin-4-yloxy)phenyl)-3-(1-isopropyl-3-phenyl-1H-pyrazol-4-yl)urea], the IC50 in experiment [1] and in experiment [3] was less than 0.1 µM in each case. Besides, the GI50 in experiment [2] is less than 0.1 µM.
With `CC(C)c1cc(NC(=O)Nc2ccc(Oc3ccnc(-c4cnn(C)c4)c3)cc2F)n(-c2cccc(F)c2)n1` [Example 24, 1-(2-fluoro-4-(2-(1-methyl-1H-pyrazol-4-yl)pyridin-4-yloxy)phenyl)-3-(1-(3-fluorophenyl)-3-isopropyl-1H-pyrazol-5-yl)urea], the IC50 in experiment [1] and in experiment [3] was less than 0.1 µM throughout. Besides, the GI50 in experiment [2] was less than 0.1 µM.
Consider `Cn1cc(-c2cc(Oc3ccc(NC(=O)Nc4cc(-c5ccccc5F)nn4C)c(F)c3F)ccn2)cn1` [Example 25, 1-(2,3-difluoro-4-(2-(1-methyl-1H-pyrazol-4-yl)pyridin-4-yloxy)phenyl)-3-(3-(2-fluorophenyl)-1-methyl-1H-pyrazol-5-yl)urea], for which the concentration for half-maximal inhibition (IC50) in experiment [1] and in experiment [3] was less than 0.1 µM each time. The GI50 in experiment [2] was less than 10 µM.

The IC50 is the concentration needed to halve the response being measured.

(Values after patent US20080269267A1, “KINASE INHIBITORS USEFUL FOR THE TREATMENT OF MYLEOPROLIFIC DISEASES AND OTHER PROLIFERATIVE DISEASES” (Deciphera Pharmaceuticals, LLC, priority 2007, published 2008).)
